Reference: patent US4224332A, “1-Aza-[2,2,2]-bicyclooctanes and anti-depressant and anti-parkinsonian compositions thereof” (Pharmindustrie, priority 1978, dated 1980)
Entries after “also recorded” stand apart in the source; their conditions may differ. Where two headings read alike, the source gives them in different places.

Columns and labels:
[1] = system: uptake of the serotonine (5-HT); assay: inhibition of the uptake of serotonine (5-HT) by synaptosomes of the rat's brain, medulla + pons; type: biochemical; details: in vitro; for IC50: rat brain synaptosomes, medulla + pons
Description: (§1) The results are expressed by an inhibiting concentration IC50, which represents the dose of product in micromoles per liter reducing by 50% the uptake of the noradrenaline (NA), the dopamine (DA), the serotonine (5-HT), or the choline in the specific regions of the brain (hypothalamus,striatum, medulla+pons) where the corresponding neurons predominate.

[2] = system: uptake of the noradrenaline (NA); assay: inhibition of the uptake of noradrenaline (NA) by synaptosomes of the rat's brain, hypothalamus; type: biochemical; details: in vitro; for IC50: rat brain synaptosomes, hypothalamus
Description: as §1

[3] = system: uptake of the dopamine (DA); assay: inhibition of the uptake of dopamine (DA) by synaptosomes of the rat's brain, striatum; type: biochemical; details: in vitro; for IC50: rat brain synaptosomes, striatum
Description: as §1

[4] = acute toxicity, oral, male mouse CD1; details: in vivo, 3 days observation
Description: The acute toxicities of the compounds of formula (I) have been determined on the male mouse CD1 (Charles River), the products being administered orally. The LD50 have been calculated, after 3 days observation, by the cumulative method of J. J. REED and H. MUENCH. (Amer. J. Hyg. 27, 493, 1938), which is relied upon herein for this purpose and the disclosure incorporated by reference.

[5] = system: hypothermia caused by reserpine; assay: action on hypothermia caused by reserpine in mice; type: in vivo; details: Mus musculus, po, read-out: ED50 p.o. (dose exerting an antihypothermic effect equal to 50% of that caused by 15 mg/kg per os of imipramine)
Description: The results are expressed by an ED50 or dose of product, in mg/kg, capable of exerting an antihypothermic effect equal to 50% of the antihypothermic effect caused by 15 mg/kg (per os) of imipramine.

uptake of the choline = assay: inhibition of the uptake of choline by synaptosomes of the rat's brain, striatum; type: biochemical; details: in vitro; for IC50: rat brain synaptosomes, striatum
Description: as §1

[6] = compared with imipramine and nomifensine

| Structure (SMILES) | inhibiting effect on 5-HT uptake, in words ([1]; compared with imipramine) | IC50 [1] | inhibiting effect on NA uptake, in words ([2]; compared with imipramine) | IC50 [2] | inhibiting effect on uptake of the dopamine at the level of the striatum, in words [3, 6] | IC50 [3] | LD50 at 72 h [4] | ED50 [5] | inhibiting activity on the neuronal uptake of the choline, in words (uptake of the choline; [6]) | IC50 (uptake of the choline) | ED50 ([5]; mice, p.o., reserpine hypothermia) |
| --- | --- | --- | --- | --- | --- | --- | --- | --- | --- | --- | --- |
| c1ccc(C2CN3CCC2(c2ccccc2)CC3)cc1 (stereo not drawn) [Example 4, 3,4-diphenyl-1-aza-[2,2,2]-bicyclooctane] | active on all the four mediators used; also recorded: near to that of the imipramine | 300 nM | active on all the four mediators used; also recorded: near to that of the imipramine | 45 nM | active on all the four mediators used; also recorded: very superior to that of imipramine; also recorded: comes near to the nomifensine | 600 nM | 200 mg/kg | 2 mg/kg | active on all the four mediators used; also recorded: near to that of the imipramine; also recorded: exerts on the neuronal uptake of the choline an inhibiting activity | 25000 nM |  |
| CN(C)CCCN1c2ccccc2CCc2ccccc21 [Imipramine, reference compound] |  | 80 nM |  | 130 nM |  | 55000 nM |  |  |  | 30000 nM | 3 mg/kg |
